Assay results from patent US20230240290A1, “USE OF (Z)-3-HEXENYL ESTERS AND METHOD FOR PROTECTING PLANTS AGAINST PESTS” (UNIVERSITAT POLITÈCNICA DE VALÈNCIA, priority 2020, published 2023).
Entries after “also recorded” stand apart in the source; their conditions may differ.

Legend:
[1] = system: SI-PI-II (marker for plant proteinase inhibitors); experiment: Transcriptional response of SI-PI-II in tomato plants exposed to volatiles (laboratory); format: in vivo, Solanum lycopersicum cv. Moneymaker; conditions: intact tomato plants exposed 24 h; filter paper, 1:10,000 ester:methanol; n=8
Protocol: Moneymaker tomato plants were used. Two weeks after seed germination, the seedlings were individually transplanted into pots (8×8×8 cm). The plants were kept at 25±2° C., with a constant relative humidity of 65%±5% and a 14:10 h (light:dark) photoperiod. Tomato plants that had not received any pesticide treatment at four weeks of age (about 20 cm tall) were used. All volatiles used were obtained from Sigma-Aldrich (St. Louis, Mo., USA). Each volatile was exposed by using a 2×2 cm piece of filter paper on which 10 μl of a solution containing the corresponding volatile at a concentration of 1:10,000 [(Z)-3-hexenyl ester:methanol] was impregnated as an emitting source of the corresponding volatile (Pérez-Hedo, M. et al. Biocontrol, 63: 203-213 (2018)).
To activate a plant, two pieces of filter paper impregnated with the volatile were placed at the bottom of a 30×30×30 cm plastic cage (BugDorm-1 Insect Tents; MegaView Science Co., Ltd, Taichung, Taiwan) into which the plant was introduced. A control treatment was carried out in which the two pieces of filter paper were impregnated with 10 μl of methanol. Eight repetitions per treatment were performed. The plants of the treatments were kept exposed to the volatile without disturbing for 24 hours in separate and isolated climatic chambers to avoid any interference from the volatiles and were kept at 25±2° C., 65±10% RH, and a 14:10 h (L:D) photoperiod. […]
The methodology followed for extracting and quantifying gene expression was described by Pérez-Hedo et al. Journal of Pest Science 3: 543-554 (2015). The primers used were forward primer: 5′-[…]-3′ (SEQ ID NO: 1) and reverse primer: 5′-[…]-3′ (SEQ ID NO: 2) for the quantification of PR1, forward primer: 5′-[…]-3′ (SEQ ID NO: 3) and reverse primer: 5′-[…]-3′ (SEQ ID NO: 4) for SI-PI-I, and forward primer: 5′-[…]-3′ (SEQ ID NO: 5) and reverse primer: 5′-[…]-3′ (SEQ ID NO: 6) for the SI-PI-II gene. […]

Tuta absoluta = conditions: in vivo
Protocol: Two consecutive experiments were performed to assess the effect of exposure to both volatiles on T. absoluta. The first experiment studied the effect on the laying of T absoluta. The selected eggs laid in the first experiment were later used in the second experiment to study the mortality of immature T. absoluta specimens developed in plants exposed to (Z)-3-hexenyl propanoate. The same three treatments described above for T. urticae were also assayed for T. absoluta. The laying of T. absoluta was assessed in 8 tomato plants (cv. Moneymaker) per treatment. Each of the plants was isolated inside a plastic cage (60×60×60 cm) (BugDorm-2) and kept in a climatic chamber at 25±2° C., 65±5% HR, 14:10 (L:D) h photoperiod following the same assay distribution described for T. urticae. Inside each cage (replica), 2 adult pairs were released from T. absoluta (males and females) and left undisturbed for 72 hours. After this time, T. absoluta adults were removed, and the number of eggs was counted.
To study the mortality of T. absoluta in the plants exposed to the 3 treatments described above, 6 T. absoluta eggs per plant were equally distributed on all the leaves with the help of a fine brush. […] Mortality of T. absoluta was assessed in 8 tomato plants (cv. Moneymaker) per treatment. […] As soon as the adults began to emerge, they were counted and removed daily from the cages.

Tamarixia radiata = experiment: Y-tube olfactometer preference, exposed vs intact Carrizo citrange plants; format: in vivo; conditions: plants exposed 24 h vs intact plants
Protocol: To assess the preference of D. citri females and the parasitoid T. radiata to Carrizo citrange plants that were previously exposed for 24 h to (Z)-3-HP in relation to intact plants, a Y-shaped olfactometer was used in the same way as that described in Example 1, and the plants were exposed to both volatiles as described above with the use of pieces of filter paper. A total of 40 valid replicates were recorded for each species for each pair of odor sources. Each individual was tested only once. […] After recording five responses, the Y-tube was rinsed with soapy water, cleaned with acetone, and allowed to dry for 5 minutes. The odor sources were later switched between the left and right side arms to minimize any spatial effect on choice. The two types of plants (intact and induced) were used only once to assess the response of 10 females and were then replaced with new plants. The Y-tube experiment was performed under the following environmental conditions: 25±1° C. and 60±10% RH.
The D. citri adults were obtained from a colony established at SWFREC (University of Florida), initially originating from citrus fruits located in their experimental plots. The parasitoids were collected in these experimental fields. Newly emerged adult females less than 5 days old were used in all the assays.

## CC/C=C\CCOC(=O)CC [(Z)-3-hexenyl propanoate]
[1]
  Transcriptional response of SI-PI-II compared to the control: significantly overexpressed
Tuta absoluta
  Mortality from T. absoluta egg to adult: around 80%
Tamarixia radiata
  Response of Tamarixia radiata females to exposed citrus plants: highly attractive; also recorded: more attractive
